Format in all cases: cell-based
One test has as its system Fyn(16)-eGFP. Briefly: Localization of Fyn(16)-eGFP in COS-1 cells (fluorescence microscopy, P100/S100 fractionation). How it is done: COS-1 cells were transfected with a Fyn(16)-eGFP construct (12) and seeded onto 25-mm glass coverslips 2 days prior to the experiment. Cells were treated overnight with or without 2 bromopalmitate as described above. Plates were washed with PBS and coverslips were mounted onto glass slides in PBS and observed with a 40× and 100×oil immersion lens on a Zeiss Axiophot 2 microscope and photographed with Kodak TMAX 400.
To investigate the effect of 2-bromopalmitate on the intracellular localization of Fyn more precisely, COS-1 cells expressing a Fyn(16)-eGFP construct were examined by immunofluorescence. This construct contains the first 16 amino acids of Fyn fused in frame to eGFP; the chimera is targeted to the plasma membrane and detergent resistant microdomains (12). Cells were cultured with no treatment, with 2-bromopalmitate or with 2-hydroxymyristate, a known myristoylation inhibitor (40,41), as described above, and were examined live by fluorescence microscopy.
Analysis of the subcellular localization of Fyn(16)-eGFP in the presence of 2-bromopalmitate and 2-hydroxymyristate was performed as described above for steady-state Fyn. As depicted in FIG. 2B, in the absence of treatment, 80% of Fyn(16)-eGFP Fyn was membrane bound, whereas in cells treated with 2-bromopalmitate and 2-hydroxymyristate, 65% and 78% of Fyn(16)-eGFP were cytosolic, respectively.

The target of test [1] is T1, Fyn (Homo sapiens, UniProt P06241).
T1 construct: expressed in transfected cells; host or cells: COS-1
T1 sequence (P06241 whole entry, species assumed): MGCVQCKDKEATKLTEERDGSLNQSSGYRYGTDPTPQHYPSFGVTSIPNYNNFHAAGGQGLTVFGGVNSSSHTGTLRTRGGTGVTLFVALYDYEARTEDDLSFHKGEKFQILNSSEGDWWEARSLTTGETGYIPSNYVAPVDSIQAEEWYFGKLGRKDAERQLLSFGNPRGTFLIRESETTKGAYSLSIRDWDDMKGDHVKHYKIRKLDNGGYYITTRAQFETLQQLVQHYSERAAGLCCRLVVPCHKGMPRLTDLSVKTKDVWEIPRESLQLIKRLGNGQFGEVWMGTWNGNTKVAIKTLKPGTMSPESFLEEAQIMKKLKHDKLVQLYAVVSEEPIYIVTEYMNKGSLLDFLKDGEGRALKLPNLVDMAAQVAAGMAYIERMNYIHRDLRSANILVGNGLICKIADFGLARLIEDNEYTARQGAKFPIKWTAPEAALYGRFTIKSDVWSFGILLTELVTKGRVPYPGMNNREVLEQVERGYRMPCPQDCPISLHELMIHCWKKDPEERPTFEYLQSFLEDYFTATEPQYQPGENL
The test can be described thus: Fyn fatty acylation (IC13/IC16 incorporation) in transfected COS-1 cells. The following applies: for effect of palmitate analog on Fyn fatty acylation: COS-1 cells, data not shown. How it is done:
The syntheses of 13-[^125I]-iodotridecanoic acid (IC13)or 16-[^125I]-iodohexanoic acid (IC16) were carried out as described previously (39). Cell labeling was carried out as described (12,13) with modifications. Briefly, each 60 mm plate of Fyn transfected COS-1 cells was incubated O/N in DMEM containing 2.5% FBS, 0.5% defatted BSA (Sigma) with or without 100 μM 2-bromopalmitate or 50 μM polyunsaturated fatty acid. Prior to labeling, the cells were incubated for 1 hr with 1 ml of DMEM containing 2% dialyzed FBS, then labeled for 4 hours with 25-50 μCi IC13 or IC16 in DMEM containing 2% dialyzed FBS, 0.5% defatted BSA with or without 2-bromopalmitate or polyunsaturated fatty acid. Labeled cells were washed three times with cold STE (100 mM NaCl, 10 mM Tris pH 7.4, 1 mM EDTA) and lysed in 0.6 ml of cold RIPA buffer containing protease inhibitors (10 μg/ml each of benzamidine, AEBSF, TPCK and TLCK, 1.5 μg/ml each of Leupeptin, Pepstatin A and Aprotinin). Lysates were clarified at 100,000×g for 15 min at 4° C. in a Beckman TL-100 ultracentrifuge. Lysates were immunoprecipitated with rabbit anti-Fyn antibody and protein A-agarose. Immunoprecipitates were washed three times with cold RIPA buffer and suspended in 1× sample buffer containing 100 mM dithiothreitol and subjected to SDS-PAGE. Gels were dried between cellophane and analyzed by phosphorimaging after 12-36 hours exposure. Experiments in Jurkat T cells were carried out according to the above protocol using 2×10^7 cells per experiment, and reducing the incubation time with 2-bromopalmitate to 3-4 hours.
A number of palmitic acid analogs were screened for their ability to inhibit Fyn palmitoylation. COS-1 cells were transfected with cDNA encoding Fyn. Three days after transfection, the cells were labeled with either [^35S]-methionine, 13-[^125I]-iodotridecanoic acid (IC13), an iodinated myristate analog, or 16-[^125I]-iodohexanoic acid (IC16), an iodinated palmitic acid analog (39), in the presence or absence of nonradioactive palmitate analogs. Cells were lysed, immunoprecipitated with anti-Fyn antibody, and analyzed by SDS-PAGE and phosphorimaging. […] When normalized for total protein levels, 70% of Fyn myristoylation and over 90% of Fyn palmitoylation was inhibited in the presence of 2-bromopalmitate. Treatment of cells with other analogs, including 2-hydroxypalmitate, palmitoleic acid and 16-hydroxypalmitate had no effect (data not shown).
To test this hypothesis, Fyn transfected COS-1 cells were incubated O/N with or without 50 μM arachidonic acid (20:4) or eicosapentaenoic acid (20:5), then labeled with IC13 or IC16. Total protein levels were monitored by immunoblotting aliquots of each sample with anti-Fyn antibody (FIG. 8A, lower panel).

In test [2] the test system is Fyn. The test can be described thus: DRM localization of Fyn in PUFA-treated COS-1 cells (sucrose gradient). To be noted: COS-1, 50 μM PUFA; untreated 30%. The procedure:
For isolation of detergent resistant microdomains in PUFA-treated COS-1 cells, a confluent 100 mm plate of COS-1 cells transiently transfected with Fyn cDNA was washed with S-IE and subjected to the same procedure described above. Fractions were analyzed for the presence of Fyn by immunoblotting.
Whether 20:4 and 20:5 inhibited localization of Fyn to detergent resistant microdomains in COS-1 cells was examined next. Cells were treated with or without polyunsaturated fatty acids as described above and layered on the bottom of a sucrose gradient as described above. Fractions were collected and analyzed by immunoblotting with anti-Fyn antibody.

Six compounds from patent US6890954B1, “Uses of 2-bromopalmitate in the treatment of autoimmune disease” (priority 1999, dated 2005) can be followed below.

On to `CCCCCCCCCCCCC(O)C(=O)O` (stereo not shown) [2-hydroxymyristate, reference compound], for which the “Fyn(16)-eGFP cytosolic” value in the test with Fyn(16)-eGFP (COS-1, 100 μM overnight, P100/S100, untreated 80% membrane bound) is recorded as 78%. In the test on Fyn(16)-eGFP (COS-1 live cells, 100 μM overnight), the “Fyn(16)-eGFP distribution by fluorescence microscopy” value is given as “reduced plasma membrane staining”.

Take `CCCCCCCCCCCCCCC(O)C(=O)O` (stereo not shown) [2-hydroxypalmitate]: at Fyn [1], the “effect of palmitate analog on Fyn fatty acylation” value (from here on “effect of palmitate analog”) is given as “no effect”.

With `O=C(O)CCCCCCCCCCCCCCCO` [16-hydroxypalmitate], on Fyn [1], the “effect of palmitate analog” value was “no effect”.

For the compound `CCCCC/C=C\C/C=C\C/C=C\C/C=C\CCCC(=O)O` [arachidonic acid], at Fyn [1] (COS-1, 50 μM PUFA overnight), the “effect on Fyn myristoylation (IC13 incorporation)” value is “almost no effect” and the “inhibition of incorporation of IC16 into Fyn (palmitoylation)” value was 55%. Also, in the test on Fyn [2], the “Fyn found in detergent resistant microdomains” value was found to be 16%.

For the compound `CC/C=C\C/C=C\C/C=C\C/C=C\C/C=C\CCCC(=O)O` [eicosapentaenoic acid], on Fyn [1] (COS-1, 50 μM PUFA overnight), the “inhibition of incorporation of IC16 into Fyn (palmitoylation)” value turned out to be 65%. Besides, the “Fyn found in detergent resistant microdomains” value in the test with Fyn [2] is given as 5.3%.

In the case of `CCCCCC/C=C\CCCCCCCC(=O)O` [palmitoleic acid], the “effect of palmitate analog” value on Fyn [1] was “no effect”.
